Measured values taken from patent US10252997B2, “Monocyclic compound” (Takeda Pharmaceutical Company Limited, priority 2015, dated 2019).

Columns and labels:
[1] = biological target: T1, Human ACC1 (Homo sapiens, UniProt Q13085); assay: Measurement of ACC1 inhibitory activity (Malonyl-CoA produced, RapidFire-mass spectrometry); format: biochemical; details: 10 μM of the test compound; read-out: ACC1 inhibitory rate (%) at 10 μM
T1 construct: His6 (from vector pFAST-BacHTc; purified on Ni-NTA) (N); made in house; host or cells: SF-9 insect cells, recombinant baculovirus BAC-ACC1
Procedure: (1) Cloning of Human ACC1 Gene and Preparation of Recombinant Baculovirus
Human ACC1 gene was cloned by PCR using a human liver cDNA library (Clontech) as a template and Primer 1 and Primer 2 shown below. Primer 1 and Primer 2 were prepared by adding SalI, NotI restriction enzyme recognition sequences based on the information of the base sequence of human ACC1 gene (Genbank Accession U19822).
PCR was performed using Pyrobest DNA polymerase (TAKARA BIO INC.). The obtained PCR product was cloned to pT7 Blue vector (Novagen) and after confirmation of the base sequence, digested with restriction enzymes SalI and […]. The obtained DNA fragment was inserted into pFAST-BacHTc (Invitrogen) digested with restriction enzymes SalI and […] to give expression plasmid ACC1/pFAST-BacHTc.
Using the expression plasmid ACC1/pFAST-BacHTc and BAC-TO-BAC Baculovirus Expression System (Invitrogen), virus stock BAC-ACC1 of recombinant Baculovirus was prepared.
(2) Preparation of ACC1 Protein
SF-9 cells (Invitrogen) were inoculated to a medium (10 L) for insect cells (Sf-900IISFM medium (Invitrogen) containing 5% fetal bovine serum (Trace), 50 mg/L Gentamicin (Wako Pure Chemical Industries, Ltd.) and 0.1% Pluronic F-68 (Invitrogen)) at 1.0×10^6 cells/mL, and cultured with shaking in Wave Bioreactor (GE Healthcare) at 27° C., 20 rpm, rocking angle 100, oxygen concentration 30%.
On day 2 of the culture, recombinant Baculovirus BAC-ACC1 was added, and the cells were cultured for 3 days. The culture medium was centrifuged at 4000×g for 10 min to give virus-infected cells. The cells were washed with phosphate buffered saline (Invitrogen) and centrifuged under the same conditions. The obtained cells were cryopreserved at −80° C.
The cryopreserved cells were thawed in ice, and suspended in 800 mL of 25 mM HEPES buffer (pH 7.5) containing 10% Glycerol, 0.3 M NaCl, 1 mM EDTA, 25 mM Sodium β-Glycerophosphate and 1 mM Sodium Orthovanadate, and supplemented with Complete Protease Inhibitor (Roche). The obtained suspension was homogenized two times in a polytron homogenizer (Kinematica) at 20,000 rpm for 20 sec. The obtained cell disruption solution was clarified by centrifugation at 186,000×g for 60 min, and the supernatant was passed through Ni-NTA Superflow Cartridges (5 mL) (QUIAGEN). Furthermore, it was washed with 25 mM HEPES buffer (pH 7.5) containing 20 mM Imidazole and 0.3 M NaCl, and eluted with 25 mM HEPES buffer (pH 7.5) containing 250 mM Imidazol and 0.3 M NaCl. The eluate was concentrated by Amicon Ultra-15 (Nihon Millipore K.K.) having a fraction molecular weight of 50K. The obtained concentrate was subjected to gel filtration with 50 mM HEPES buffer (pH 7.5) containing 10 mM MgCl2, 2 mM dithiothreitol, 10 mM tripotassium citrate and 0.3 M NaCl by using HiLoad 26/60 Superdex200 prep grade gel filtration column (GE Healthcare) to give ACC1. The obtained ACC1 was cryopreserved at −80° C.
(3) Measurement of ACC1 Inhibitory Activity
ACC1 obtained in the above-mentioned (2) was diluted with an enzyme reaction buffer (50 mM HEPES (pH 7.5), 10 mM MgCl2, 10 mM Tripottasium Citrate, 2 mM Dithiothreitol, 0.001% Fatty acid free BSA) to a concentration of 0.2 μg/ml, and the mixture was added to each well of a 384 well assay plate by 10 μl. A test compound dissolved in dimethyl sulfoxide (DMSO) was diluted with an enzyme reaction buffer, and the resulting solution (5 μl) was added to each well. The mixture was incubated at room temperature for 60 min. Then, a substrate solution (50 mM KHCO3, 200 μM ATP, 200 μM Acetyl-CoA, 5 μl) was added to each well, and the mixture was reacted at room temperature for 30 min. The reaction was quenched by adding a reaction quenching liquid (1.3% formic acid, 0.2 μM Malonyl-^13C3-CoA) by 60 μL each to the obtained reaction mixtures (test compound addition group).
In addition, a reaction was performed in the same manner as above and without adding the test compound (test compound non-addition group). […]

[2] = test system: HCT116 cells; assay: Growth inhibitory activity on HCT116 cell (CellTiter-Glo); format: cell-based; details: Homo sapiens, HCT-116, 72 h; test compound 1 μM, 3 days; read-out: HCT116 cell proliferation inhibitory rate (%) at 1 μM
Procedure: The growth inhibitory activity of the compound on HCT116 cell was evaluated by the following method.
HCT116 cells were seeded in a 384 well blackplate at 900 cells/[…]/well, and maintained in an assay medium (RPMI medium (Wako) containing 2% fetal bovine serum, 50 Unit/mL penicillin and […] streptomycin (Invitrogen)). The next day, a test compound dissolved in dimethyl sulfoxide (DMSO) was diluted with the assay medium, and the obtained compound solution was added by […] to each well of a plate containing HCT116 cells, and incubated at 37° C., 5% CO2 (test compound addition group).
A similar reaction was performed without adding a test compound (test compound non-addition group).
Furthermore, a similar reaction was performed under the conditions without adding HCT116 cell and a test compound (control group).
After 3 days, […] of a CellTiter-Glo reagent (Promega KK) was added to the well, and the mixture was stirred for 10 min. Thereafter, the luminescence value of each well was measured by the EnVision™ multilabel counter (Perkin Elmer Inc.).
The HCT116 cell proliferation inhibitory rate (%) of the test compound was determined by the following calculation formula. (1−(luminescence of test compound addition group−luminescence of control group)÷(luminescence of test compound non-addition group−luminescence of control group))×100
The HCT116 cell proliferation inhibitory rates (%) of the test compound (1 μM) are shown below.

SMILES | inhibition at 10 µM [1] [%] | inhibition at 1 µM [2] [%]
CC(=O)NC(C)c1ccc(OCc2c(F)cc(Oc3cccc(OCC4CC4)c3)cc2F)cc1 (stereo not shown) [Example 39, N-(1-(4-((4-(3-(cyclopropylmethoxy)phenoxy)-2,6-difluorobenzyl)oxy)phenyl)ethyl)acetamide] | 82 | 26
CC(=O)NC(C)CCc1cc(-c2ccc(Oc3cccc(OCC4CC4)c3)cc2)no1 (stereo not shown) [Example 46, N-(4-(3-(4-(3-(cyclopropylmethoxy)phenoxy)phenyl)-1,2-oxazol-5-yl)butan-2-yl)acetamide] | 95 | 20
